Experimental data published in ChEMBL document CHEMBL5576125, “Discovery of Pyrazolopyrazines as Selective, Potent, and Mutant-Active MET Inhibitors with Intracranial Efficacy” (J Med Chem, 2024).
Blank lines part the entries; values can stand above or below the molecule they belong to. Active and inactive are the calls of the source. No cut-off for these calls is given here.

Tests used:
[1] = Metabolic stability in human hepatocytes assessed as clearance at 2 uM measured upto 120 mins by LC-MS/MS analysis; assay type: ADME, cell-based, Hepatocyte
[2] = target: Hepatocyte growth factor receptor (Homo sapiens, UniProt P08581, F1200I); test: Displacement of tracer 236 from N-terminal GST-tagged recombinant human MET F1200I mutant (956 to end residues) expressed in Sf9 insect cells incubated for 1 hr by TR-FRET assay
[3] = target: Hepatocyte growth factor receptor (Homo sapiens, UniProt P08581, Y1230H); test: Displacement of tracer 236 from N-terminal GST-tagged recombinant human MET Y1230H mutant (956 to end residues) expressed in Sf9 insect cells incubated for 1 hr by TR-FRET assay
Hepatocyte growth factor receptor (Homo sapiens, UniProt P08581, Y1230H), sequence (P08581 25-1390 Y1230H limits assumed): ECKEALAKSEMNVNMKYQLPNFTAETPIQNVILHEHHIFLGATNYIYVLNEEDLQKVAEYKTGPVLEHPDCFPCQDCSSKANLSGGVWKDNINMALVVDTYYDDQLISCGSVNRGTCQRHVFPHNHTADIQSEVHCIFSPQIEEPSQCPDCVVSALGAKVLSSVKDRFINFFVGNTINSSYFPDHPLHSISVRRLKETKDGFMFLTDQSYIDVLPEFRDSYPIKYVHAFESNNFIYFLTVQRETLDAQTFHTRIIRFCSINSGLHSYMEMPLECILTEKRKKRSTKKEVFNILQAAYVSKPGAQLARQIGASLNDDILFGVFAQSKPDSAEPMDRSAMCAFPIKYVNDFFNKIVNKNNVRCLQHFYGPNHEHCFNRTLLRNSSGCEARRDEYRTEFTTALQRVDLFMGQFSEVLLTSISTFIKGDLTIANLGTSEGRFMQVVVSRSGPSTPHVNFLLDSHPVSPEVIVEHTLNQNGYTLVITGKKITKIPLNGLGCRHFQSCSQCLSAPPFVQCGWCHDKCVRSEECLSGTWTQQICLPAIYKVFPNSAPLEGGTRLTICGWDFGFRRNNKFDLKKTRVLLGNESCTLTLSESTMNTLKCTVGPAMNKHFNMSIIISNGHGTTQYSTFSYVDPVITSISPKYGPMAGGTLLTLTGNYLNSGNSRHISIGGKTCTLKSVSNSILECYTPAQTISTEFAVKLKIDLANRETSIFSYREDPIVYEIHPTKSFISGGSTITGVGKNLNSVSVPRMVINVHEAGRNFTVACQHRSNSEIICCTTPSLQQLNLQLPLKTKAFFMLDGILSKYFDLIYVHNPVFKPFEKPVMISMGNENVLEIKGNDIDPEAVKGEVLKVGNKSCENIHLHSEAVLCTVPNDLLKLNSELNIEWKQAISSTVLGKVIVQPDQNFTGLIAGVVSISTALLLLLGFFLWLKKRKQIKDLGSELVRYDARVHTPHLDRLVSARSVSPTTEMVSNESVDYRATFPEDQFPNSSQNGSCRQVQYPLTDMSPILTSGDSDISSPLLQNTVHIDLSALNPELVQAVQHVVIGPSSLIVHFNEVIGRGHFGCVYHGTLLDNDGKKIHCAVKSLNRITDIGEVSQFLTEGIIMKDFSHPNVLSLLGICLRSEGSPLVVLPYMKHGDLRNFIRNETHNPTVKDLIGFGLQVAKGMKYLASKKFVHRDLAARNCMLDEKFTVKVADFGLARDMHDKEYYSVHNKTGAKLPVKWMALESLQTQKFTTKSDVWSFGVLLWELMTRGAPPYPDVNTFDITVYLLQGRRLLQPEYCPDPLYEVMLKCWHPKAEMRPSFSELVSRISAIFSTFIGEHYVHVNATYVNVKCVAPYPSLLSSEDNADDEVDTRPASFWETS

[4] = target: T1, Hepatocyte growth factor receptor (Homo sapiens, UniProt P08581, D1228N); test: Inhibition of MET D1228N mutant (unknown origin) transfected in mouse NIH3T3 cells incubated for 1 hr by In-Cell Western assay; assay type: cell-based
T1 sequence (P08581 25-1390 D1228N limits assumed): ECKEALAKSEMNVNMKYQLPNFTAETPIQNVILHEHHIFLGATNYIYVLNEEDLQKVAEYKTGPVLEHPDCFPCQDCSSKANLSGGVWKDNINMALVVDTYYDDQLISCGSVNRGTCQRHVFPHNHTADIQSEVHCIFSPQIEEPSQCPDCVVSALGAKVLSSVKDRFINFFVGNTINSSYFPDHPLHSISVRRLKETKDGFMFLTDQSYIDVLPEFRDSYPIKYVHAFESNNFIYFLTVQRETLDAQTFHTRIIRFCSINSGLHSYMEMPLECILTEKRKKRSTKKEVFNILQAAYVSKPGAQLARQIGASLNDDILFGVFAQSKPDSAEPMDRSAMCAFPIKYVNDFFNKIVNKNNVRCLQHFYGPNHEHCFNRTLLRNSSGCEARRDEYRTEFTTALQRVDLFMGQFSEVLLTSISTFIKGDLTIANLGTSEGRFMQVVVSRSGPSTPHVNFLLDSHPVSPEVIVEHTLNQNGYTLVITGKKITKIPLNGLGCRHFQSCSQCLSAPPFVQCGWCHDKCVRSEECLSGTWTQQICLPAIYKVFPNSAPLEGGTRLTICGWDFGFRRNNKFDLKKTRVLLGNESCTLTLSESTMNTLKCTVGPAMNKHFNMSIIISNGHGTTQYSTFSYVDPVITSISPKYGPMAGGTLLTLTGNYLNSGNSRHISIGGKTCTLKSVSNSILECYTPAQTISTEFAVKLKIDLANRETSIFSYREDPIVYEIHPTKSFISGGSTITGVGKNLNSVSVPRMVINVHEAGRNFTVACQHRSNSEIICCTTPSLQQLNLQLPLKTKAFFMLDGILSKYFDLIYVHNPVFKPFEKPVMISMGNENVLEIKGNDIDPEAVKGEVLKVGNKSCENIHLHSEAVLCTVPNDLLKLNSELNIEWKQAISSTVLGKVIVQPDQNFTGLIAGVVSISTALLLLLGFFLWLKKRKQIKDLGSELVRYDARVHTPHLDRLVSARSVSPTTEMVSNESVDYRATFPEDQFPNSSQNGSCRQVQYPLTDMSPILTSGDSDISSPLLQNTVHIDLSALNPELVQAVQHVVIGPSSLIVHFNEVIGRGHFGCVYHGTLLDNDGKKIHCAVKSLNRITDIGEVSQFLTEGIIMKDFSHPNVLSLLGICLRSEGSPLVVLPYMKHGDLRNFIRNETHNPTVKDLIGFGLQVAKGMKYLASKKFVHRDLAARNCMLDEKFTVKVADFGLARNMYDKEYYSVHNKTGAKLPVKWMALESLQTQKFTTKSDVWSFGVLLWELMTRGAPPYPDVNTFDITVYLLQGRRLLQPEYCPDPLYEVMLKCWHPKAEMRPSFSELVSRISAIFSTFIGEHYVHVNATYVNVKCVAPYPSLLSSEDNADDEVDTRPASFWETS

[5] = target: T1, Hepatocyte growth factor receptor; test: Displacement of tracer 236 from N-terminal GST-tagged recombinant human MET D1228N mutant (956 to end residues) expressed in Sf9 insect cells incubated for 1 hr by TR-FRET assay
[6] = Displacement of tracer 236 from N-terminal GST-tagged recombinant human MET exon 14 deletion mutant (956 to end residues) expressed in Sf9 insect cells incubated for 1 hr by TR-FRET assay
[7] = Metabolic stability in mouse hepatocytes assessed as clearance at 2 uM measured upto 120 mins by LC-MS/MS analysis; assay type: ADME, cell-based, Hepatocyte
[8] = Apparent permeability across apical to basolateral side in MDCKII-MDR1 cells at 1 uM incubated for 2 hrs in orbital shaker by LC-MS/MS analysis; assay type: ADME, cell-based, Canis lupus familiaris; conditions: dog, MDCK-MDR1
[9] = Displacement of tracer 236 from N-terminal GST-tagged recombinant human MET […] mutant (956 to end residues) expressed in Sf9 insect cells incubated for 1 hr by TR-FRET assay
[10] = Efflux ratio of apparent permeability across basolateral to apical over apical to basolateral side in MDCKII-MDR1 cells at 1 uM incubated for 2 hrs in orbital shaker by LC-MS/MS analysis; assay type: ADME, cell-based, Canis lupus familiaris; conditions: dog, MDCK-MDR1
[11] = Cmax in female athymic nude Foxn1nu mouse brain at 30 mg/kg, po administered as single dose and measured after 24 hrs by LC/MS analysis; assay type: ADME, organism-based; conditions: in vivo
[12] = Clearance in female athymic nude Foxn1nu mouse at 1 mg/kg, iv administered as single dose and measured after 24 hrs by LC/MS analysis; assay type: ADME, organism-based; conditions: in vivo
[13] = Cmax in female athymic nude Foxn1nu mouse plasma at 30 mg/kg, po administered as single dose and measured after 24 hrs by LC/MS analysis; assay type: ADME, organism-based
NIH3T3 [14] = test: (§1) Antitumor activity against mouse NIH3T3 cells expressing luciferase and human MET exon 14 deletion construct with MET-D1228N Type I resistance mutation implanted in female athymic nude Foxn1nu mouse assessed as reduction in tumor burden at 100 mg/kg, po qd measured after 29 days by luminescent imaging based analysis; assay type: functional, organism-based; conditions: time 29.0 day
Mus musculus = test: In vivo inhibition of MET in female athymic nude Foxn1nu mouse xenografted with human Hs746T cells expressing MET exon 14 skipping mutation with MET amplification assessed as reduction in phospho-MET protein level in tumor at 3 to 100 mg/kg, po administered as single dose measured after 2 to 8 hrs by ELISA relative to control; assay type: functional, organism-based; conditions: dose 3-100 mg/kg, time 2-8 hrs
NIH3T3 [15] = test: Antitumor activity against mouse NIH3T3 cells expressing luciferase and human MET exon 14 deletion construct with MET-D1228N Type I resistance mutation implanted in female athymic nude Foxn1nu mouse assessed as animal survival rate at 100 mg/kg, po qd measured until 80 days relative to control; assay type: functional; conditions: NIH3T3, 1920 h, time 80 day
Cytochrome P450 = test: Inhibition of CYP450 (unknown origin); assay type: ADME, protein assay; conditions: human
[16] = Hepatic extraction ratio in female athymic nude Foxn1nu mouse at 1 mg/kg, iv administered as single dose and measured after 24 hrs by LC/MS analysis; assay type: ADME, organism-based; conditions: in vivo, read-out: ERH
Hs746T [17] = test: Antitumor activity against human Hs746T cells expressing MET exon 14 skipping mutation with MET amplification xenografted in female athymic nude Foxn1nu mouse at 100 mg/kg, po qd administered for 14 days; assay type: functional, organism-based; conditions: time 14.0 day
[18] = target: Macrophage-stimulating protein receptor (Homo sapiens) (UniProt Q04912); test: Inhibition of human RON incubated for 5 mins in presence of ATP by chelation-enhanced fluorescence based Beckman Coulter analysis relative to control
Macrophage-stimulating protein receptor (Homo sapiens), sequence (Q04912 25-304 limits assumed): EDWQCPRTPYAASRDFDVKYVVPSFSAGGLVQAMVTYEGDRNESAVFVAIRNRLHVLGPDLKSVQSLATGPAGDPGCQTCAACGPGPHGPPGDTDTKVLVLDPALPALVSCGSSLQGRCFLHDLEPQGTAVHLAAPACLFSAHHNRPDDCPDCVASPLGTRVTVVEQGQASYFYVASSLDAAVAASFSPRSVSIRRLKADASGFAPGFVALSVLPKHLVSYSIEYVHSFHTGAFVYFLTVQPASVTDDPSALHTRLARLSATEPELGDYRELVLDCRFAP
Macrophage-stimulating protein receptor (Homo sapiens), sequence (Q04912 310-1400 limits assumed): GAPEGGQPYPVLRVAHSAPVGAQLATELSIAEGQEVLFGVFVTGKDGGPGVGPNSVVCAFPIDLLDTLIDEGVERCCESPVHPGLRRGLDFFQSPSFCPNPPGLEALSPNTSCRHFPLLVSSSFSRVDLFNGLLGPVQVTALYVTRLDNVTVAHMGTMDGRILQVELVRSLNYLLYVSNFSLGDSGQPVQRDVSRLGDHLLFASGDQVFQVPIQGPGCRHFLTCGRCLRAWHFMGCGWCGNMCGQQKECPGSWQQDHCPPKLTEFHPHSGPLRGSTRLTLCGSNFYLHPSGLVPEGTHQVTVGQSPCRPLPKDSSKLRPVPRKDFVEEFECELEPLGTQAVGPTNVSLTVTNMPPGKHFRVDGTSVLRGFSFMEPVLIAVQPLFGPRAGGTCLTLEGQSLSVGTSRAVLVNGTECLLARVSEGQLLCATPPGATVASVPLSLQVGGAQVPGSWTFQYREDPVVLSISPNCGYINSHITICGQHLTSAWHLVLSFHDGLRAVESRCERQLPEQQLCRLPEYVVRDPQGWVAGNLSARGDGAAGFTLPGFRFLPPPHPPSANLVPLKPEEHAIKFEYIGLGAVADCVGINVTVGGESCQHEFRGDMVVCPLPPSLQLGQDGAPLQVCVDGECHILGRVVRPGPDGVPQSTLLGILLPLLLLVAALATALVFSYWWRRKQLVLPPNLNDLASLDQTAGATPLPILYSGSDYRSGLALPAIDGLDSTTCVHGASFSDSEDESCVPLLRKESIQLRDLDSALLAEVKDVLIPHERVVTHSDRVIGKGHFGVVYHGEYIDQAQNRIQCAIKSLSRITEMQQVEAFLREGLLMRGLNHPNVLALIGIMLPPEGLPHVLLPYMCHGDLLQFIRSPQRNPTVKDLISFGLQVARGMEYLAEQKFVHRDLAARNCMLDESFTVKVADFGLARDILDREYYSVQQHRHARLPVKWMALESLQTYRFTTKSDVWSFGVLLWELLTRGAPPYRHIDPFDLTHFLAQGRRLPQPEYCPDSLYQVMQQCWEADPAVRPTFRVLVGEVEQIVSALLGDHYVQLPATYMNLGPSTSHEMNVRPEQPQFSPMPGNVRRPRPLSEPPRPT

[19] = Half life in female athymic nude Foxn1nu mouse at 1 mg/kg, iv administered as single dose and measured after 24 hrs by LC/MS analysis; assay type: ADME, organism-based; conditions: in vivo
NIH3T3 [20] = test: as §1, with “median survival time” for “reduction in tumor burden”, “30” for “100”, “bid” for “qd”, “(reference value: 15.5 day)” for “by luminescent imaging based analysis”; assay type: functional; conditions: time 29 day
[21] = Volume of distribution at steady state in female athymic nude Foxn1nu mouse at 1 mg/kg, iv administered as single dose and measured after 24 hrs by LC/MS analysis; assay type: ADME, organism-based; conditions: in vivo, read-out: Vdss
[22] = Ratio of unbound drug concentration in female athymic nude Foxn1nu mouse brain to plasma at 100 mg/kg, po administered as single dose and measured after 24 hrs by LC/MS analysis; assay type: ADME, organism-based; conditions: read-out: K(p,uu,brain)
[23] = Tmax in female athymic nude Foxn1nu mouse at 30 mg/kg, po administered as single dose and measured after 24 hrs by LC/MS analysis; assay type: ADME, organism-based; conditions: in vivo
[24] = In vivo inhibition of MET in female athymic nude Foxn1nu mouse implanted with mouse NIH3T3 cells expressing luciferase and human MET exon 14 deletion construct with MET-D1228N Type I resistance mutation assessed as reduction in phospho-MET protein level in tumor by measuring residual activity at 30 to 100 mg/kg, po administered as single dose measured after 12 hrs by ELISA relative to control; assay type: functional; conditions: dose 30-100 mg/kg
[25] = target: Vascular endothelial growth factor receptor 2 (Homo sapiens, UniProt P35968); test: Inhibition of VEGFR2 in human Flp-In-293 cells by ELISA; assay type: toxicity, cell-based
Hs746T [26] = test: Antitumor activity against human Hs746T cells expressing MET exon 14 skipping mutation with MET amplification xenografted in female athymic nude Foxn1nu mouse at 3 to 30 mg/kg, po bid administered for 14 days; assay type: functional, organism-based; conditions: dose 3-30 mg/kg, time 14.0 day
NIH3T3 [27] = test: as §1, with “30” for “100”, “bid” for “qd”; assay type: functional, organism-based; conditions: time 29.0 day
[28] = Ratio of unbound drug concentration in female athymic nude Foxn1nu mouse brain to plasma at 30 mg/kg, po administered as single dose and measured after 24 hrs by LC/MS analysis; assay type: ADME, organism-based; conditions: read-out: K(p,uu,brain)
[29] = AUCinfinity in female athymic nude Foxn1nu mouse at 30 mg/kg, po administered as single dose and measured after 24 hrs by LC/MS analysis; assay type: ADME, organism-based; conditions: in vivo

Structure (SMILES): Cn1ccc([C@H]2C[C@H](N(c3cc(F)c(NC(=O)c4ccnn(-c5ccc(F)cn5)c4=O)cc3Cl)c3nccn4nccc34)C2)n1
CLhep predicted at 2 µM [1]: 9 mL/min/kg
IC50 [2]: 147 nM
IC50 [3]: 7 nM
IC50 [4]: 28 nM
IC50 [5]: 9 nM
IC50 [6]: 6 nM
CLhep predicted at 2 µM [7]: 31 mL/min/kg
Papp A→B at 2 h, 1 µM [8]: 5 ×10⁻⁶ cm/s
IC50 [9]: 36 nM

Structure (SMILES): Cn1ccc([C@H]2C[C@H](N(c3cc(Cl)c(NC(=O)c4ccnn(-c5ccc(F)cn5)c4=O)cc3F)c3nccn4nccc34)C2)n1
CLhep predicted at 2 µM [1]: 5 mL/min/kg
IC50 [2]: 479 nM
IC50 [3]: 13 nM
efflux ratio at 2 h, 1 µM [10]: 1
IC50 [4]: 97 nM
IC50 [5]: 21 nM
IC50 [6]: 12 nM
CLhep predicted at 2 µM [7]: 9 mL/min/kg
Papp A→B at 2 h, 1 µM [8]: 6 ×10⁻⁶ cm/s
IC50 [9]: 125 nM

Structure (SMILES): Cc1cc(N(c2nccn3nccc23)[C@H]2C[C@H](c3ccn(C)n3)C2)c(F)cc1NC(=O)c1ccnn(-c2ccc(F)cn2)c1=O
CLhep predicted at 2 µM [1]: 22 mL/min/kg
IC50 [2]: 217 nM
IC50 [3]: 5 nM
efflux ratio at 2 h, 1 µM [10]: 0.9
IC50 [4]: 41 nM
IC50 [5]: 10 nM
CLhep predicted at 2 µM [7]: 17 mL/min/kg
Papp A→B at 2 h, 1 µM [8]: 4 ×10⁻⁶ cm/s
IC50 [9]: 64 nM

Structure (SMILES): Cn1ccc(CCN(c2cc(F)c(NC(=O)c3ccnn(-c4ccc(F)cn4)c3=O)cc2F)c2cccn3nccc23)n1
IC50 [2]: 58 nM
IC50 [3]: 2 nM
IC50 [4]: 25 nM
IC50 [5]: 4 nM
IC50 [9]: 19 nM

Structure (SMILES): Cn1ccc([C@H]2C[C@H](N(c3cc(F)c(NC(=O)c4ccnn(-c5ccc(F)cn5)c4=O)cc3F)c3cc(F)cn4nccc34)C2)n1
CLhep predicted at 2 µM [1]: 3 mL/min/kg
IC50 [2]: 278 nM
IC50 [3]: 11 nM
IC50 [4]: 37 nM
IC50 [5]: 33 nM
IC50 [6]: 13 nM
CLhep predicted at 2 µM [7]: 15 mL/min/kg
Papp A→B at 2 h, 1 µM [8]: 2 ×10⁻⁶ cm/s
IC50 [9]: 41 nM

Structure (SMILES): Cn1ccc([C@H]2C[C@H](N(c3cc(F)c(NC(=O)c4ccnn(-c5ccc(F)cn5)c4=O)cc3F)c3nccn4nccc34)C2)n1
Cmax [11]: 900 ng/mL
clearance [12]: 9.5 mL/min/kg
Cmax [13]: 10500 ng/mL
Activity (NIH3T3 [14]): Active
inhibition (Mus musculus): Active
CLhep predicted at 2 µM [1]: 13 mL/min/kg
survival at 100 mg/kg (NIH3T3 [15]): 100%
inhibition (INH) (Cytochrome P450): Not Active
IC50 [2]: 90 nM
hepatic extraction ratio at 24 h [16]: 0.106
Activity (Hs746T [17]): Active
inhibition [18]: > 50%
IC50 [3]: 5 nM
efflux ratio at 2 h, 1 µM [10]: 1.1
IC50 [4]: 23 nM
IC50 [5]: 6 nM
half-life [19]: 1.9 h
MST (NIH3T3 [20]): 33 days
Vd [21]: 1.3 L/kg
Kp uu at 24 h [22]: 0.24
Tmax [23]: 2 h
Activity [24]: <6%
IC50 [6]: 6 nM
IC50 [25]: > 5000 nM
Activity (Hs746T [26]): Active
Activity (NIH3T3 [27]): Active
Kp uu at 24 h [28]: 0.11
AUC(0-inf) [29]: 113 µg·h/mL
CLhep predicted at 2 µM [7]: 35 mL/min/kg
Papp A→B at 2 h, 1 µM [8]: 8 ×10⁻⁶ cm/s
IC50 [9]: 15 nM

The next lines start with results.

IC50 [2]: 622 nM
IC50 [3]: 38 nM
IC50 [4]: 198 nM
IC50 [5]: 64 nM
Structure (SMILES): CCN(c1cc(F)c(NC(=O)c2ccnn(-c3ccc(F)cc3)c2=O)cc1F)c1cccn2nccc12
IC50 [6]: 36 nM
IC50 [9]: 172 nM

IC50 [2]: 326 nM
IC50 [3]: 7 nM
IC50 [4]: 25 nM
IC50 [5]: 8 nM
Structure (SMILES): CC(C)(C#N)CN(c1cc(F)c(NC(=O)c2ccnn(-c3ccc(F)cc3)c2=O)cc1F)c1cccn2nccc12
IC50 [9]: 53 nM

IC50 [2]: 5000 nM
IC50 [3]: 84 nM
IC50 [4]: 1680 nM
IC50 [5]: 165 nM
Structure (SMILES): O=C(Nc1cc(F)c(Oc2cccn3nccc23)cc1F)c1ccnn(-c2ccc(F)cc2)c1=O
IC50 [6]: 27 nM
IC50 [9]: 717 nM

IC50 [2]: 96 nM
IC50 [3]: 2 nM
IC50 [4]: 57 nM
IC50 [5]: 5 nM
Structure (SMILES): CC(C)(C#N)CN(c1cc(F)c(NC(=O)c2ccnn(-c3ccc(F)cn3)c2=O)cc1F)c1cccn2nccc12
IC50 [6]: 3 nM
IC50 [9]: 39 nM
